Assay results: patent US4020111A, “Propynyloxy alkyl arene insecticides” (priority 1975, dated 1977)

How the values were obtained:
[1] = system: polyvalent resistant (CH strain) houseflies; assay: whole plant or invertebrate; type: in vivo, housefly (CH strain); details: CH strain
[2] = system: IN/WHO strain house flies; assay: topical application test, percent kill after 24 hours, IN/WHO strain; type: in vivo, house fly (susceptible IN/WHO strain)
Outline: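 Susceptible female IN/WHO house flies, 3–5 days old, CO2-anesthetized, received synergist plus insecticide in acetone (1.0 μL) on the thorax; doses in μg/fly. Flies held 10 per dish, 3–5 dishes/treatment, with skim milk; mortality (percent kill) read at 24 h.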

mice = assay: synergism of acute toxicity of Dimetilan, GS 13005, Secobarbital and Methadone (intraperitoneal); type: in vivo, Swiss albino white male mice; details: for number of mice dead: 48 hours, of eight mice
Outline: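 Male Swiss albino mice (5–6 weeks, 23–27 g), eight per dose; synergist in corn oil given i.p. 1 h before i.p. insecticide or drug (drugs in distilled water). Lethality recorded over at least 6 h; controls received corn oil plus agent alone.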

[3] = Dimetilan 2 + synergist 4 μg/fly
[4] = GS 13005 1 + synergist 2 μg/fly
[5] = GS 13798 1 + synergist 2 μg/fly
[6] = Pyrethrum 2 + synergist 4 μg/fly
[7] = Mobam 0.10 + synergist 0.50 μg/fly
[8] = Dimetilan 8 mg/kg + synergist 80 mg/kg ip
[9] = Dimetilan 8 mg/kg + synergist 240 mg/kg ip
[10] = Diazinon 0.03 + synergist 0.15 μg/fly
[11] = Mobam 0.20 + synergist 1 μg/fly
[12] = Diazinon 5 + synergist 10 μg/fly
[13] = Mobam 0.05 + synergist 0.25 μg/fly
[14] = Mobam 0.50 μg/fly, synergist/insecticide 5/1
[15] = Mobam 1.0 μg/fly, synergist/insecticide 1/1
[16] = Mobam 1.0 μg/fly, synergist/insecticide 2/1
[17] = Mobam 1.0 μg/fly, synergist/insecticide 5/1
[18] = GS 13005 71 mg/kg + synergist 213 mg/kg
[19] = Methadone 32 mg/kg + synergist 215 mg/kg
[20] = Secobarbital 90 mg/kg + synergist 215 mg/kg

Row | Structure (SMILES) | percent kill after 24 hours [1, 3] | percent kill after 24 hours [1, 4] | percent kill after 24 hours [1, 5] | percent kill after 24 hours [1, 6] | percent kill after 24 hours [2, 7] | number of mice dead (mice; [8]) | number of mice dead (mice; [9]) | percent kill after 24 hours [2, 10] | percent kill after 24 hours [2, 11] | percent kill after 24 hours [1, 12] | also measured
1 | C#CCON=C(C)c1ccc(Cl)cc1 [I-D] | 100% | 100% | 100% | 67% | 20% | 1 | 6 | – | – | – | –
2 | C#CCON=C(C)c1ccc2ccccc2c1 [I-F] | 100% | 100% | 95% | 35% | – | 0 | 4 | 24% | 47% | – | percent kill after 24 hours ([2]; GS 13005 0.10 + synergist 0.50 μg/fly): 45%
3 | C#CCON=Cc1ccc(Cl)cc1Cl [I-G] | – | 100% | – | 47% | – | – | 0 | – | – | – | percent kill after 24 hours ([2]; Diazinon 0.02 + synergist 0.10 μg/fly): 40%
4 | C#CCOCc1ccc(Cl)c(Cl)c1 [II-C] | 100% | 75% | 92% | 50% | 27% | – | 0 | 25% | – | 95% | percent kill after 24 hours [2, 13]: 4%
5 | C#CCOCc1ccc(Cl)c(Cl)c1Cl [II-D] | 100% | 95% | 100% | 30% | – | – | 0 | 40% | 100% | 60% | percent mortality 24 hours ([2]; Mobam 0.13 μg/fly, synergist/insecticide 1/1): 17%; percent mortality 24 hours ([2]; Mobam 0.25 μg/fly, synergist/insecticide 0.5/1): 30%; percent mortality 24 hours ([2]; Mobam 0.50 μg/fly, synergist/insecticide 1/1): 100%; percent mortality 24 hours [2, 14]: 100%; percent mortality 24 hours [2, 15]: 100%; percent mortality 24 hours [2, 16]: 100%; percent mortality 24 hours [2, 17]: 100%; percent kill after 24 hours [2, 13]: 10%; mice lethality (number dead) (mice; [18]): 3; mice lethality (number dead) (mice; [19]): 2; mice lethality (number dead) (mice; [20]): 1
6 | C#CCOCc1c(Cl)ccc(Cl)c1Cl [II-E] | 100% | 100% | 100% | 78% | 33% | – | 0 | – | 100% | 65% | percent mortality 24 hours [2, 14]: 100%; percent mortality 24 hours ([2]; Mobam 1.0 μg/fly, synergist/insecticide 0.5/1): 100%; percent mortality 24 hours [2, 15]: 100%; percent mortality 24 hours [2, 16]: 100%; percent mortality 24 hours [2, 17]: 100%; percent kill after 24 hours ([2]; synergist alone 1 μg/fly): 0%
7 | C#CCOCc1c(Cl)cccc1[N+](=O)[O-] [II-K] | – | – | – | – | – | 0 | 6 | – | – | – | 24 hour percent mortality ([2]; Bidrin 0.063 μg/fly with five parts synergist): 0%; 24 hour percent mortality ([2]; Pyrolan 0.13 μg/fly with five parts synergist): 40%; mice lethality (number dead) (mice; [18]): 3; mice lethality (number dead) (mice; [19]): 2; mice lethality (number dead) (mice; [20]): 1
